Read-outs that look alike come from different tables or passages of the source.
Key:
Format in all cases: cell-based
IL-17A = experiment: Cytokine assay: IL-17A production by human PBMC stimulated with PHA; conditions: IC50 class, read-out: IL-17A Inhib.
Description: (§1) Cytokine Assay: Analysis of Proliferation of and Cytokine Production by Human PBMC Stimulated with PHA
(§2) Peripheral blood mononuclear cells (PBMC) from healthy human donors were purified using Accuspin™ System-Histopaque-1077 (Sigma) according to the protocol recommended by the manufacturer. Purified PBMC were then washed twice with phosphate-buffered saline (PBS) and resuspended in RPMI1640 culture medium supplemented with 10% dialyzed heat inactivated fetal calf serum, 1.5 mM L-glutamine, 100 U penicillin/ml, and […] (all from PAN Biotech, Aidenbach, Germany). For stimulation, PBMC were seeded at 1×10^5 cells/well, activated with 2 μg/ml phytohaemagglutinin (PHA, Sigma) and incubated with the test compounds for 48 hours. IL-17A, IL-17F and INF-γ were then determined in the culture supernatant using a Luminex BioPlex system, following the manufacturer's instructions (BioRad, Munich, Germany). For screening, compounds were used at 10, 1, 0.1 and 0.01 μM. To determine the IC50, compounds were titrated semilogarithmically.
(§3) Cytokines were determined in the aforementioned culture supernatant using the following methods: IL-17A was measured using the human homodimer IL-17A ELISA Ready Set Go Kit from eBioscience (Frankfurt, Germany); IL-17F using the human IL-17F ELI-Pair from Hölzel DiagnosticaGmBH (Köln, Germany); and IFN-γ using the OptEIA human IFN-g ELISA from BD Bioscience (Heidelberg, Germany), all following the manufacturer's instructions.

IL-17F = experiment: Cytokine assay: IL-17F production by human PBMC stimulated with PHA; conditions: IC50 class, read-out: IL-17F Inhib.
Description: as §1, §2, §3

INF-γ = experiment: Cytokine assay: INF-γ production by human PBMC stimulated with PHA; conditions: IC50 class, read-out: IFN-gamma Inhib.
Description: as §1, §2, §3

Row | IC50 (IL-17A; Homo sapiens, PBMC) [nM] | IC50 (IL-17F; Homo sapiens, PBMC) [nM] | IC50 (INF-γ; Homo sapiens, PBMC) [nM] | IC50 (IL-17A) [nM] | IC50 (IL-17F) [nM] | IC50 (INF-γ) [nM] | SMILES
1 | 500 to 5000 | 500 to 5000 | 500 to 5000 |  |  |  | COCCOCc1c(-c2ccccc2Cl)noc1-c1cnn(C[C@H](C)O)c1C(F)(F)F [Example 75, (2S)-1-{4-[3-(2-chlorophenyl)-4-[(2-methoxyethoxy)methyl]-1,2-oxazol-5-yl]-5-(trifluoromethyl)-1H-pyrazol-1-yl}propan-2-ol]
2 | 50 to 500 | 50 to 500 | < 50 |  |  |  | Cc1c(-c2onc(-c3ccccc3Cl)c2COC2CC2)cnn1CCC(C)(C)O [Example 79, 4-{4-[3-(2-chlorophenyl)-4-(cyclopropoxymethyl)-1,2-oxazol-5-yl]-5-methyl-1H-pyrazol-1-yl}-2-methylbutan-2-ol]
3 | ≥ 5000 | 500 to 5000 | 500 to 5000 |  |  |  | C[C@H](O)Cn1ncc(-c2onc(-c3ccccc3Cl)c2COC2COC2)c1C(F)(F)F [Example 88, (S)-1-(4-(3-(2-chlorophenyl)-4-((oxetan-3-yloxy)methyl)isoxazol-5-yl)-5-(trifluoromethyl)-1H-pyrazol-1-yl)propan-2-ol]
4 | < 50 | < 50 | < 50 |  |  |  | COc1cccc(-c2noc(-c3cnn(CCC(C)(C)O)c3C(F)(F)F)c2COC2CC2)c1Cl [Example 91, 4-{4-[3-(2-chloro-3-methoxyphenyl)-4-(cyclopropoxymethyl)-1,2-oxazol-5-yl]-5-(trifluoromethyl)-1H-pyrazol-1-yl}-2-methylbutan-2-ol]
5 | 500 to 5000 | 50 to 500 | 50 to 500 |  |  |  | COC(=O)c1c(-c2cccnc2O)noc1-c1cnn(CC(C)(C)O)c1C(F)(F)F [Example 93, methyl 5-[1-(2-hydroxy-2-methylpropyl)-5-(trifluoromethyl)-1H-pyrazol-4-yl]-3-(2-hydroxypyridin-3-yl)-1,2-oxazole-4-carboxylate]
6 | 50 to 500 | 50 to 500 | 50 to 500 |  |  |  | Cc1c(-c2onc(-c3c(F)cccc3Cl)c2-c2ccncn2)cnn1[C@H]1C[C@@](C)(O)C1 [Example 108, 3-{4-[3-(2-chloro-6-fluorophenyl)-4-(pyrimidin-4-yl)-1,2-oxazol-5-yl]-5-methyl-1H-pyrazol-1-yl}-1-methylcyclobutan-1-ol]
7 | ≥ 5000 | ≥ 5000 | 500 to 5000 |  |  |  | COc1ccccc1-c1noc(-c2cnn(CC(C)(C)O)c2C(F)(F)F)c1-c1ncccn1 [Example 114, 1-{4-[3-(2-methoxyphenyl)-4-(pyrimidin-2-yl)-1,2-oxazol-5-yl]-5-(trifluoromethyl)-1H-pyrazol-1-yl}-2-methylpropan-2-ol]
8 | 500 to 5000 | 500 to 5000 | 50 to 500 |  |  |  | COc1ccccc1-c1noc(-c2cnn(C[C@@H](C)O)c2C(F)(F)F)c1-c1ccncn1 [Example 115, (2R)-1-{4-[3-(2-methoxyphenyl)-4-(pyrimidin-4-yl)-1,2-oxazol-5-yl]-5-(trifluoromethyl)-1H-pyrazol-1-yl}propan-2-ol]
9 | ≥ 5000 | ≥ 5000 | 500 to 5000 |  |  |  | COc1ccccc1-c1noc(-c2cnn(CC(C)(C)O)c2C(F)(F)F)c1-c1ccncn1 [Example 116, 1-{4-[3-(2-methoxyphenyl)-4-(pyrimidin-4-yl)-1,2-oxazol-5-yl]-5-(trifluoromethyl)-1H-pyrazol-1-yl}-2-methylpropan-2-ol]
10 | 500 to 5000 | 500 to 5000 | 50 to 500 |  |  |  | COc1cccc(-c2noc(-c3cnn(C[C@@H](C)O)c3C(F)(F)F)c2-c2ccncn2)c1Cl [Example 119, (2R)-1-{4-[3-(2-chloro-3-methoxyphenyl)-4-(pyrimidin-4-yl)-1,2-oxazol-5-yl]-5-(trifluoromethyl)-1H-pyrazol-1-yl}propan-2-ol]
11 | < 50 | < 50 | < 50 |  |  |  | CC(C)(O)CCn1ncc(-c2onc(-c3ccccc3Cl)c2-c2ncccn2)c1C(F)(F)F [Example 122, 4-{4-[3-(2-chlorophenyl)-4-(pyrimidin-2-yl)-1,2-oxazol-5-yl]-5-(trifluoromethyl)-1H-pyrazol-1-yl}-2-methylbutan-2-ol]
12 | 50 to 500 | 50 to 500 | 500 to 5000 |  |  |  | CC(C)(O)CCn1ncc(-c2onc(-c3cccc(O)c3Cl)c2-c2ncccn2)c1C(F)(F)F [Example 129, 2-chloro-3-{5-[1-(3-hydroxy-3-methylbutyl)-5-(trifluoromethyl)-1H-pyrazol-4-yl]-4-(pyrimidin-2-yl)-1,2-oxazol-3-yl}phenol]
13 | 50 to 500 | 50 to 500 | 50 to 500 |  |  |  | CN1CCN(CCOc2cccc(-c3noc(-c4cnn(CCC(C)(C)O)c4C(F)(F)F)c3-c3ncccn3)c2Cl)CC1 [Example 136, 4-[4-(3-{2-chloro-3-[2-(4-methylpiperazin-1-yl)ethoxy]phenyl}-4-(pyrimidin-2-yl)-1,2-oxazol-5-yl)-5-(trifluoromethyl)-1H-pyrazol-1-yl]-2-methylbutan-2-ol]

The remaining lines, values behind:

Row | SMILES | IC50 (IL-17A; Homo sapiens, PBMC) [nM] | IC50 (IL-17F; Homo sapiens, PBMC) [nM] | IC50 (INF-γ; Homo sapiens, PBMC) [nM] | IC50 (IL-17A) [nM] | IC50 (IL-17F) [nM] | IC50 (INF-γ) [nM]
14 | Cc1c(-c2onc(-c3ccccc3Cl)c2COC2CC2)cnn1[C@H]1C[C@](C)(O)C1 [Example 81, 3-{4-[3-(2-chlorophenyl)-4-(cyclopropoxymethyl)-1,2-oxazol-5-yl]-5-methyl-1H-pyrazol-1-yl}-1-methylcyclobutan-1-ol] | 500 to 5000 | 500 to 5000 | 50 to 500 |  |  | 
15 | Cc1c(-c2onc(-c3c(F)cccc3Cl)c2COC2CC2)cnn1[C@H]1C[C@](C)(O)C1 [Example 84, 3-{4-[3-(2-chloro-6-fluorophenyl)-4-(cyclopropoxymethyl)-1,2-oxazol-5-yl]-5-methyl-1H-pyrazol-1-yl}-1-methylcyclobutan-1-ol] | 50 to 500 | 50 to 500 | 50 to 500 |  |  | 
16 | C[C@@H](O)Cn1ncc(-c2cc(-c3c(F)cccc3Cl)no2)c1C(F)(F)F [Example 94, (2R)-1-(4-(3-(2-chloro-6-fluorophenyl)isoxazol-5-yl)-5-(trifluoromethyl)-1H-pyrazol-1-yl)propan-2-ol] | ≥ 5000 | ≥ 5000 | 500 to 5000 |  |  | 
17 | C[C@H](O)Cn1ncc(-c2onc(-c3ccccc3Cl)c2C2CCCO2)c1C(F)(F)F (stereo partly drawn) [Example 96, (2S)-1-{4-[3-(2-chlorophenyl)-4-(oxolan-2-yl)-1,2-oxazol-5-yl]-5-(trifluoromethyl)-1H-pyrazol-1-yl}propan-2-ol] | 500 to 5000 | 500 to 5000 | 50 to 500 |  |  | 
18 | C[C@]1(O)C[C@@H](n2ncc(-c3onc(-c4c(F)cccc4Cl)c3-c3ccncn3)c2C(F)(F)F)C1 [Example 105, 3-{4-[3-(2-chloro-6-fluorophenyl)-4-(pyrimidin-4-yl)-1,2-oxazol-5-yl]-5-(trifluoromethyl)-1H-pyrazol-1-yl}-1-methylcyclobutan-1-ol] |  |  |  | 500 to 5000 | 50 to 500 | 50 to 500
19 | Cc1c(-c2onc(-c3ccccc3Cl)c2-c2ccncn2)cnn1[C@H]1C[C@@](C)(O)C1 [Example 107, 3-{4-[3-(2-chlorophenyl)-4-(pyrimidin-4-yl)-1,2-oxazol-5-yl]-5-methyl-1H-pyrazol-1-yl}-1-methylcyclobutan-1-ol] | 50 to 500 | 50 to 500 | < 50 |  |  | 
20 | Cc1c(-c2onc(-c3ccccc3Cl)c2-c2cnccn2)cnn1[C@H]1C[C@@](C)(O)C1 [Example 109, 3-{4-[3-(2-chlorophenyl)-4-(pyrazin-2-yl)-1,2-oxazol-5-yl]-5-methyl-1H-pyrazol-1-yl}-1-methylcyclobutan-1-ol] | 500 to 5000 | 500 to 5000 | 50 to 500 |  |  | 
21 | COc1ccccc1-c1noc(-c2cnn(C[C@@H](C)O)c2C(F)(F)F)c1-c1ncccn1 [Example 113, (2R)-1-{4-[3-(2-methoxyphenyl)-4-(pyrimidin-2-yl)-1,2-oxazol-5-yl]-5-(trifluoromethyl)-1H-pyrazol-1-yl}propan-2-ol] | 500 to 5000 | 50 to 500 | 500 to 5000 |  |  | 
22 | COc1cccc(-c2noc(-c3cnn(C[C@@H](C)O)c3C(F)(F)F)c2-c2ncccn2)c1Cl [Example 117, (2R)-1-{4-[3-(2-chloro-3-methoxyphenyl)-4-(pyrimidin-2-yl)-1,2-oxazol-5-yl]-5-(trifluoromethyl)-1H-pyrazol-1-yl}propan-2-ol] | 500 to 5000 | 500 to 5000 | 50 to 500 |  |  | 
23 | COc1cccc(-c2noc(-c3cnn(CC(C)(C)O)c3C(F)(F)F)c2-c2ccncn2)c1Cl [Example 120, 1-{4-[3-(2-chloro-3-methoxyphenyl)-4-(pyrimidin-4-yl)-1,2-oxazol-5-yl]-5-(trifluoromethyl)-1H-pyrazol-1-yl}-2-methylpropan-2-ol] | 500 to 5000 | ≥ 5000 | 500 to 5000 |  |  | 
24 | CN(C)CCCOc1cccc(-c2noc(-c3cnn(CCC(C)(C)O)c3C(F)(F)F)c2-c2ncccn2)c1Cl [Example 140, 4-[4-(3-{2-chloro-3-[3-(dimethylamino)propoxy]phenyl}-4-(pyrimidin-2-yl)-1,2-oxazol-5-yl)-5-(trifluoromethyl)-1H-pyrazol-1-yl]-2-methylbutan-2-ol] | 50 to 500 | 50 to 500 | 50 to 500 |  |  | 

Source: patent US11292788B2, “IL-17 and IFN-gamma inhibition for the treatment of autoimmune diseases and chronic inflammation” (Immunic AG, priority 2017, dated 2022)
